We go through eleven compounds from patent US11926613B2, “Kinase inhibitors for the treatment of central and peripheral nervous system disorders” (UNIVERSITY OF MIAMI, priority 2017, dated 2024).

“Also recorded” adds a separate entry of the source. Like-named read-outs stand apart in the source and are kept apart here.

One experiment relates to primary CNS neurons. The experiment in a line: Neurite outgrowth in primary CNS neurons (FIG. 1, FIG. 2). The following applies: FIG. 2, combination of both inhibitors. Format: cell-based.
Experiment [1] has as its system corticospinal tract (CST) axons. The experiment in a line: Unilateral pyramidotomy model, in vivo axon growth (CST axon sprouting). To be noted: mice, cortical injection, 2 mM final concentration, 5 weeks after unilateral pyramidotomy, N=2. An excerpt:
B) Graph represents averages of sprouting axon index across two animals treated with indicated compounds. Error bars indicate range of data points. N=2 animals (mice).
To assess the role of the compounds described herein in axon growth in vivo, the unilateral pyramidotomy model was employed, in which the pyramid in the ventral brainstem was severed unilaterally, rostral to the decussation of corticospinal tract (CST) axons. The animals then received bilateral cortical injections of a compound described herein (or DMSO) mixed 1:1 with AAV8-UbC-GFP or AAV8-UbC-TdTomato (5×10^13 GC/mL) for a final concentration of 2 mM (2 animals (mice) for each condition). […] Axon growth in the cervical spinal cord was assessed after 5 weeks. Cervical sections of the spinal cord were stained with antibodies against PKCγ (to assess completeness of lesion), and GFP (to amplify the signal from the virus). For analyses, GFP+ axons sprouting into the denervated gray matter were counted at 0, 500, 1000 μm lateral to the central canal, and normalized to the number of GFP+ fibers at the level of the brainstem (sprouting axon index).

The subject of a further experiment is Primary Neurons. As to the kind of experiment: HCS neurite outgrowth assay (High Content Screening with Primary Neurons). Format: cell-based.
Experiment [2] has as its system neurons from hippocampi of E18 rat embryos. The experiment in a line: Neurite growth length (% NTL) in cultured E18 rat hippocampal neurons, 9-point dose response, 48 hours. Format: cell-based. The following applies: for activity at 0.078 µM / activity at 0.156 µM / activity at 0.312 µM / activity at 0.625 µM / activity at 1.25 µM / activity at 2.5 µM / activity at 5 µM / activity at 10 µM / activity at 20 µM: Rattus norvegicus, Neuron, 48 h; for activity at 0.078 µM: 78 nM. The essentials: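 % NTL comes from automated neurite tracing of βIII-tubulin-stained cells, with 200–300 or more neurons per condition. Compounds were given in a 9-point dilution series (20 μM to 0.078125 μM) for 48 h. Cells were trypsin-dissociated E18 rat hippocampal neurons plated at 1500/well on poly-D-lysine.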

Take `Cc1cncc2cccc(S(=O)(=O)N3CCCNC[C@@H]3C)c12` [Example H-1152]: in the experiment with primary CNS neurons, the “neurite outgrowth, ROCK inhibitor and S6K inhibitor combined” value is recorded as “synergistically promotes neurite outgrowth”.
With `O=C(N[C@@H]1CNC[C@H]1NC(=O)c1ccc(C(=O)c2cc(Br)ccc2O)cc1)c1ccncc1` [Example A88, N-((3R,4R)-4-(4-(5-bromo-2-hydroxybenzoyl)benzamido)pyrrolidin-3-yl)isonicotinamide], in experiment [1], the “CST axon sprouting (sprouting axon index)” value is “promotes CST axon sprouting in the spinal cord; also recorded: nearly a two-fold increase in sprouting”. Besides, the EC50 with Primary Neurons (Primary neuron) amounted to 1.17 µM.
Take `COc1ccc(O)c(C(=O)c2ccc(C(=O)O[C@@H]3CCCNC[C@H]3NC(=O)c3ccncc3)cc2)c1F` [Example A92, (3R,4R)-3-(isonicotinamido)azepan-4-yl 4-(2-fluoro-6-hydroxy-3-methoxybenzoyl)benzoate, reference compound]: the “CST axon sprouting (sprouting axon index)” value in experiment [1] is on record as “promotes CST axon sprouting in the spinal cord; also recorded: nearly a two-fold increase in sprouting”. The same compound had an EC50 with Primary Neurons (Primary neuron) of 0.711 µM.
Take `COc1ccc(O)c(C(=O)c2ccc(C(=O)N[C@@H]3CNC[C@H]3NC(=O)c3ccncc3)cc2)c1F` [Example A16, N-[(3R,4R)-4-[4-(2-fluoro-6-hydroxy-3-methoxybenzoyl)benzamido]pyrrolidin-3-yl]pyridine-4-carboxamide]: the results for the “CST axon sprouting (sprouting axon index)” value in experiment [1] and in experiment [1] (listed as A-16) were “nearly a two-fold increase in sprouting” and “promotes CST axon sprouting in the spinal cord”, respectively. Further, the “neurite growth length (% NTL)” value came to 117.55 % NTL in experiment [2] (156 nM); 125.17 % NTL in experiment [2] (312 nM); 144.99 % NTL in experiment [2] (625 nM); 167.31 % NTL in experiment [2] (1.25 μM); 228.24 % NTL in experiment [2] (2.5 μM); 403.74 % NTL in experiment [2] (5 μM). Besides, the results for the “neurite growth length (% NTL)” value in experiment [2] (10 μM) and in experiment [2] (20 μM) were 573.73 % NTL and 660.88 % NTL, respectively. In experiment [2], the activity at 0.078 µM is 117%. Besides, the EC50 in the experiment on Primary Neurons amounted to 5.5 µM.
With `CCc1cncnc1N1CCN(Cc2nc3ccc(C(F)(F)F)cc3[nH]2)CC1` [PF-4708761], the “neurite outgrowth, ROCK inhibitor and S6K inhibitor combined” value in the experiment with primary CNS neurons is “synergistically promotes neurite outgrowth”.
As to `COc1cccc(C(=O)c2ccc(C(=O)N[C@@H]3CNC[C@H]3NC(=O)c3ccncc3)cc2)c1O` [Example A73, N-[(3R,4R)-4-[4-(2-hydroxy-3-methoxybenzoyl)benzamido]pyrrolidin-3-yl]pyridine-4-carboxamide], in experiment [2], the activity at 0.078 µM was found to be 96.7%. The activity at 0.156 µM in experiment [2] (156 nM) worked out at 110%. In addition, the activity at 0.312 µM in experiment [2] (312 nM) amounted to 102%. The activity at 0.625 µM in experiment [2] (625 nM) came to 105%. The activity at 1.25 µM in experiment [2] (1.25 μM) was 125%. Also, in experiment [2] (2.5 μM), the activity at 2.5 µM was found to be 117%. The activity at 5 µM in experiment [2] (5 μM) was 121%. Further, the activity at 10 µM in experiment [2] (10 μM) was 136%. Also, the activity at 20 µM in experiment [2] (20 μM) was found to be 159%. Moreover, in the experiment with Primary Neurons (Primary neuron), the EC50 was greater than 20 µM.
With `COc1ccc(O)c(C(=O)c2ccc(C(=O)N[C@@H]3CNC[C@H]3NC(=O)c3ccc4[nH]nnc4c3)cc2)c1F` [Example A58, N-[(3R,4R)-4-[4-(2-fluoro-6-hydroxy-3-methoxybenzoyl)benzamido]pyrrolidin-3-yl]-1H-1,2,3-benzotriazole-5-carboxamide], the activity at 0.078 µM in experiment [2] came to 88.3%. Further, the activity at 0.156 µM in experiment [2] (156 nM) was determined as 87.6%. Also, in experiment [2] (312 nM), the activity at 0.312 µM came to 79.3%. For the same compound, the activity at 0.625 µM in experiment [2] (625 nM) turned out to be 75.7%. Also, in experiment [2] (1.25 μM), the activity at 1.25 µM is 76.3%. Further, the activity at 2.5 µM in experiment [2] (2.5 μM) stood at 84.8%. Also, the activity at 5 µM in experiment [2] (5 μM) was determined as 85.3%. In addition, the activity at 10 µM in experiment [2] (10 μM) was 89.5%. Also, the activity at 20 µM in experiment [2] (20 μM) came out at 88.6%. In addition, in the experiment with Primary Neurons (Primary neuron), the EC50 was determined as 5.27 µM.
On to `COc1ccc(O)c(C(=O)c2ccc(C(=O)N[C@@H]3CNC[C@H]3NC(=O)c3ccnc(N)c3)cc2)c1F` [Example A54, 2-amino-N-[(3R,4R)-4-[4-(2-fluoro-6-hydroxy-3-methoxybenzoyl)benzamido]pyrrolidin-3-yl]pyridine-4-carboxamide], for which the activity at 0.078 µM in experiment [2] was 83.1%. For the same compound, the activity at 0.156 µM in experiment [2] (156 nM) worked out at 79.9%. Moreover, in experiment [2] (312 nM), the activity at 0.312 µM was determined as 84.3%. Further, the activity at 0.625 µM in experiment [2] (625 nM) came to 84.1%. Also, in experiment [2] (1.25 μM), the activity at 1.25 µM came out at 94.7%. Moreover, in experiment [2] (2.5 μM), the activity at 2.5 µM stood at 105%. In addition, the activity at 5 µM in experiment [2] (5 μM) came to 120%. Besides, in experiment [2] (10 μM), the activity at 10 µM worked out at 151%. Further, the activity at 20 µM in experiment [2] (20 μM) worked out at 228%. The same compound came in with an EC50 in the experiment with Primary Neurons (Primary neuron) greater than 20 µM.
Regarding `O=C(N[C@@H]1CCCC[C@H]1NC(=O)c1ccc(C(=O)c2ccccc2)cc1)c1ccncc1` [Example A19, N-[(1R,2R)-2-(4-benzoylbenzamido)cyclohexyl]pyridine-4-carboxamide], the activity at 0.078 µM in experiment [2] turned out to be 90.1%. Also, the activity at 0.156 µM in experiment [2] (156 nM) stood at 93.7%. Moreover, the activity at 0.312 µM in experiment [2] (312 nM) was determined as 68.7%. Also, the activity at 0.625 µM in experiment [2] (625 nM) worked out at 75%. The activity at 1.25 µM in experiment [2] (1.25 μM) came to 75.7%. The activity at 2.5 µM in experiment [2] (2.5 μM) came out at 78.5%. Moreover, in experiment [2] (5 μM), the activity at 5 µM was 79.4%. Further, the activity at 10 µM in experiment [2] (10 μM) worked out at 87.4%. Further, the activity at 20 µM in experiment [2] (20 μM) was 91.2%. The compound further came in with an EC50 in the experiment with Primary Neurons (Primary neuron) of 2.24 µM.
With `COc1ccc(C(=O)c2ccc(C(=O)N[C@@H]3CNC[C@H]3NC(=O)c3ccncc3)cc2)c(O)c1` [Example A83, N-[(3R,4R)-4-[4-(2-hydroxy-4-methoxybenzoyl)benzamido]pyrrolidin-3-yl]pyridine-4-carboxamide], the activity at 0.078 µM in experiment [2] came to 106%. Further, in experiment [2] (156 nM), the activity at 0.156 µM was 105%. The activity at 0.312 µM in experiment [2] (312 nM) worked out at 110%. For the same compound, the activity at 0.625 µM in experiment [2] (625 nM) is 118%. Moreover, the activity at 1.25 µM in experiment [2] (1.25 μM) came out at 124%. Also, the activity at 2.5 µM in experiment [2] (2.5 μM) was 127%. In addition, the activity at 5 µM in experiment [2] (5 μM) worked out at 127%. The activity at 10 µM in experiment [2] (10 μM) turned out to be 123%. Further, the activity at 20 µM in experiment [2] (20 μM) worked out at 117%. The EC50 in the experiment on Primary Neurons (Primary neuron) amounted to 0.486 µM.
`Cc1cccc(C(=O)c2ccc(C(=O)N[C@@H]3CNC[C@H]3NC(=O)c3ccnc(N)n3)cc2)c1O` [Example A74, 2-amino-N-[(3R,4R)-4-[4-(2-hydroxy-3-methylbenzoyl)benzamido]pyrrolidin-3-yl]pyrimidine-4-carboxamide]: in experiment [2], the activity at 0.078 µM came out at 101%. Besides, the activity at 0.156 µM in experiment [2] (156 nM) was 103%. The activity at 0.312 µM in experiment [2] (312 nM) amounted to 103%. In addition, the activity at 0.625 µM in experiment [2] (625 nM) was 106%. Besides, the activity at 1.25 µM in experiment [2] (1.25 μM) was determined as 105%. In experiment [2] (2.5 μM), the activity at 2.5 µM came out at 119%. In addition, in experiment [2] (5 μM), the activity at 5 µM amounted to 121%. Besides, the activity at 10 µM in experiment [2] (10 μM) worked out at 137%. In addition, the EC50 in the experiment with Primary Neurons (Primary neuron) stood at 4.5 µM.

Broadly, the EC50 is the concentration at which the effect is half-maximal. Read a low EC50 as an effect from little substance.
